# Laboratory results: PubChem BioAssay (NCI)
#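 Cells were grown in 96-well plates and exposed to each compound for 48 hours at five concentrations; endpoints were interpolated linearly between bracketing concentrations, or set to the highest concentration if not reached. GI50 marks 50% less growth. Definition used: TGI = concentration required for complete inhibition of growth.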
# Assays:
# Experiment in all cases: NCI tumour cell line growth inhibition, 48 h
# ACHN renal = tested on: ACHN renal
# SNB-19 CNS = tested on: SNB-19 CNS
# BT-549 breast = tested on: BT-549 breast
# T-47D breast = tested on: T-47D breast
# M14 melanoma = tested on: M14 melanoma
# HL-60(TB) leukemia = tested on: HL-60(TB) leukemia
# MCF7 breast = tested on: MCF7 breast
# RXF 393 renal = tested on: RXF 393 renal
# SF-268 CNS = tested on: SF-268 CNS
# HOP-92 NSCLC = tested on: HOP-92 NSCLC
# COLO 205 colon = tested on: COLO 205 colon
# HS 578T breast = tested on: HS 578T breast
# SK-MEL-5 melanoma = tested on: SK-MEL-5 melanoma
# OVCAR-8 ovarian = tested on: OVCAR-8 ovarian
# HCT-116 colon = tested on: HCT-116 colon
# TK-10 renal = tested on: TK-10 renal
# RPMI-8226 leukemia = tested on: RPMI-8226 leukemia
# IGROV1 ovarian = tested on: IGROV1 ovarian
# HCC-2998 colon = tested on: HCC-2998 colon
# LOX IMVI melanoma = tested on: LOX IMVI melanoma
# A498 renal = tested on: A498 renal
# SNB-75 CNS = tested on: SNB-75 CNS
# OVCAR-4 ovarian = tested on: OVCAR-4 ovarian
# 786-0 renal = tested on: 786-0 renal
# KM12 colon = tested on: KM12 colon
# SW-620 colon = tested on: SW-620 colon
# HOP-62 NSCLC = tested on: HOP-62 NSCLC
# K-562 leukemia = tested on: K-562 leukemia
# UACC-62 melanoma = tested on: UACC-62 melanoma
structure (smiles),measurement,setting,value
Nc1nc2c(c3ncccc13)C(c1cccc(Br)c1)Cc1ncccc1-2 (configuration not stated),GI50,ACHN renal,1.84 µM
same,TGI,ACHN renal,34.8 µM
same,GI50,SNB-19 CNS,11.5 µM
same,TGI,SNB-19 CNS,25 µM
same,GI50,BT-549 breast,0.681 µM
same,TGI,BT-549 breast,6.16 µM
same,GI50,T-47D breast,0.524 µM
same,TGI,T-47D breast,38.7 µM
same,GI50,M14 melanoma,0.509 µM
same,TGI,M14 melanoma,12.6 µM
same,GI50,HL-60(TB) leukemia,0.291 µM
same,TGI,HL-60(TB) leukemia,7.86 µM
same,GI50,MCF7 breast,0.37 µM
same,TGI,MCF7 breast,18.1 µM
same,GI50,RXF 393 renal,0.765 µM
same,TGI,RXF 393 renal,4.06 µM
same,GI50,SF-268 CNS,0.808 µM
same,TGI,SF-268 CNS,20.1 µM
same,GI50,HOP-92 NSCLC,0.95 µM
same,TGI,HOP-92 NSCLC,15.5 µM
same,GI50,COLO 205 colon,0.665 µM
same,TGI,COLO 205 colon,3.81 µM
same,GI50,HS 578T breast,2.9 µM
same,TGI,HS 578T breast,23.5 µM
same,GI50,SK-MEL-5 melanoma,0.576 µM
same,TGI,SK-MEL-5 melanoma,14.3 µM
same,GI50,OVCAR-8 ovarian,5.24 µM
same,TGI,OVCAR-8 ovarian,58 µM
same,GI50,HCT-116 colon,0.442 µM
same,TGI,HCT-116 colon,11.4 µM
same,GI50,TK-10 renal,7.94 µM
same,TGI,TK-10 renal,56.2 µM
same,GI50,RPMI-8226 leukemia,5.43 µM
same,TGI,RPMI-8226 leukemia,48.7 µM
same,GI50,IGROV1 ovarian,2.64 µM
same,TGI,IGROV1 ovarian,34.3 µM
same,GI50,HCC-2998 colon,2.83 µM
same,TGI,HCC-2998 colon,13.7 µM
same,GI50,LOX IMVI melanoma,0.647 µM
same,TGI,LOX IMVI melanoma,15.9 µM
same,GI50,A498 renal,0.304 µM
same,TGI,A498 renal,1.6 µM
same,GI50,SNB-75 CNS,0.3 µM
same,TGI,SNB-75 CNS,13.4 µM
same,GI50,OVCAR-4 ovarian,7.13 µM
same,TGI,OVCAR-4 ovarian,41 µM
same,GI50,786-0 renal,1.36 µM
same,TGI,786-0 renal,12 µM
same,GI50,KM12 colon,0.433 µM
same,TGI,KM12 colon,13.1 µM
same,GI50,SW-620 colon,0.479 µM
same,TGI,SW-620 colon,21.8 µM
same,GI50,HOP-62 NSCLC,0.88 µM
same,TGI,HOP-62 NSCLC,21.5 µM
same,GI50,K-562 leukemia,0.539 µM
same,TGI,K-562 leukemia,> 100 µM
same,GI50,UACC-62 melanoma,0.436 µM
